Data taken from paper PMC8523172, “Structure of mycobacterial CIII2CIV2 respiratory supercomplex bound to the tuberculosis drug candidate telacebec (Q203)” (eLife, 2021).

Experiments:
Format in all cases: biochemical
[1] = molecular target: T1, CIII2CIV2 supercomplex, subunit QcrB (QP site) (Mycolicibacterium smegmatis, UniProt I7FGS8+I7GD61); experiment: Clark-type electrode oxygen consumption, purified enzyme turnover ([…] substrate)
T1 construct: purified CIII2CIV2 supercomplex with 3×FLAG tag at the C terminus of QcrB; with QcrA (Rieske subunit) within CIII2CIV2

[2] = molecular target: T1, CIII2CIV2 supercomplex, subunit QcrB (QP site); experiment: Clark-type electrode oxygen consumption, purified enzyme
[3] = molecular target: T1, CIII2CIV2 supercomplex, subunit QcrB (QP site); experiment: oxygen consumption (DMWH2:O2 oxidoreductase) inhibition of purified enzyme

Cc1c(C)c(O)c2ccccc2c1O [DMWH2, 2,3-dimethyl-[1,4]naphthohydroquinone]
Clark-type electrode oxygen consumption, purified enzyme turnover (100 μM substr) [1]: 91 ± 4 e^-/s

Cc1cc(O)c2ccccc2c1O [menadiol, 2-methyl-[1,4]naphthohydroquinone]
Clark-type electrode oxygen consumption, purified enzyme [2]: CIII2CIV2 activity is greater with DMWH2 green curve, than with menadiol brown curve

CCc1nc2ccc(Cl)cn2c1C(=O)NCc1ccc(N2CCC(c3ccc(OC(F)(F)F)cc3)CC2)cc1 [telacebec]
IC50 [3]: 53 ± 19 nM
